Data: patent US20230322797A1, “SOLID FORMS, PHARMACEUTICAL COMPOSITIONS AND PREPARATION OF HETEROAROMATIC MACROCYCLIC ETHER COMPOUNDS” (Nuvalent, Inc., priority 2022, published 2023)
Counter-ions that a name gives are not always drawn.

Legend:
[1] = Solubility of salts of Compound 2 and free base in distilled water (gravimetric); assay type: physicochemical; conditions: for Solubility (mg solid/mL water): distilled water, RT, stirred 3 days, gravimetric; for XRPD Pattern Recovered: solid recovered after slurry in water at RT
Method: Solubility of the scaled-up salts of Compound 2 and free base Compound 2 was assessed in distilled water at RT. Approximately 30 mg of solid was weighed directly into 2 mL vials, and a 6 mm stir bar was added to each vial. Water was then incrementally added to the vials (starting with 1 vol.) and the resulting slurries were left to stir for 10-15 min prior to the next addition. As all solids remained in slurries upon the addition of 1 mL of water, the gravimetric method was adopted, and the vials were stirred at RT for 3 days before centrifuging. Supernatant solutions were recovered and evaporated to dryness at 50° C. in atmosphere on a hot plate, then placed at 50° C. under vacuum (˜−29 inHg) for 3 h before final weighing.

[2] = Desolvation experiments on solvated forms (heating, then XRPD); assay type: physicochemical
Method: Desolvation experiments were carried out on the solvated forms identified during the polymorph screen to establish the relationships between the forms. Samples were heated to a temperature at which the solids fully desolvated (based on TG/DSC characterisation data) and where exothermic events were observed after desolvation a separate experiment was carried out to assess for additional solid forms.

[3] = Stability study of Compound 1 drug substance; assay type: physicochemical; conditions: for Chemical and physical stability (description, assay, related substances, water content, polymorphic form, chiral purity): 1 month / three months (Example 10)
Method: A stability study is conducted for Compound 1. Samples were stored at: 30° C.±2° C./65%±5% Relative Humidity (RH), or 40° C.±2° C./75%±5% RH. At regular intervals (e.g., initial, 1, 3, 6, 9, 12, 18, 24, and 36 months), tests are performed for description, assay, related substances, water content, polymorphic form, and chiral purity.
A stability study was conducted for Compound 1 crystalline free base Form 2. Samples were stored at: (1) 30° C.±2° C./65%±5% Relative Humidity (RH), with data collected at 0, 1, 3, 6, 9, and 12 months; and (2) 40° C.±2° C./75%±5% RH, with data collected at 0, 1, 3, and 6 months. At the indicated time points, tests were performed for description, assay, related substances, water content, polymorphic form, and chiral purity.

[4] = Dynamic vapour sorption (DVS); assay type: physicochemical; conditions: relative humidity from about 0 to about 90%, about 25° C.
Method: In one embodiment, the solid form is characterized by a DVS isotherm that matches the DVS isotherm depicted in FIG. 6. In one embodiment, the DVS isotherm is as measured at about 25° C.
Approximately, 10-20 mg of sample was placed into a mesh vapour sorption balance pan and loaded into a DVS Advantage dynamic vapour sorption balance by Surface Measurement Systems. The sample was subjected to a ramping profile from 40-90% relative humidity (RH) at 10% increments, maintaining the sample at each step until a stable weight had been achieved (dm/dt 0.004%, minimum step length 30 minutes, maximum step length 500 minutes) at 25° C. After completion of the sorption cycle, the sample was dried using the same procedure to 0% RH and then a second sorption cycle back to 40% RH. Two cycles were performed. The weight change during the sorption/desorption cycles were plotted, allowing for the hygroscopic nature of the sample to be determined. XRPD analysis was then carried out on any solid retained.

[5] = Solid-form stability study of salts of Compound 2 (75% RH, 40° C., 7 days); assay type: physicochemical; conditions: for Purity (%) After / Purity (%) Before: HPLC; for Purity (%) After / XRPD Pattern After: after 7 days at 75% RH and 40° C.; for Purity (%) Before: before stress test
Method: Solid-form stability studies were completed by weighing approximately 30 mg each of Form A of the camsylate, esylate, mesylate, and sulfate salts of Compound 2 into 4 mL vials and covering with a Kimwipe. The vials were placed inside a humidity chamber set to 75% RH at 40° C. for 7 days. The HPLC and XRPD data was collected to confirm the purity and identity of the solid forms. The four salts were physically and chemically stable. No decrease in purity (i.e. less than 0.1%) or form change was observed after a seven-day stress test at 75% relative humidity (RH) and 40° C. (Table 5).

[6] = Salt screen of Compound 2: XRPD after drying and humidification; conditions: vacuum 50° C. at least 3 h, >95% RH overnight
[7] = Solvent solubility screen; assay type: physicochemical; conditions: organic solvent or mixture, thermodynamic from solid; majority of the solvents investigated
Source text: Solids were recovered from these solutions by the addition of anti-solvent to give an indication of solid form, with Form 2 predominantly observed.

[8] = Solubility of Compound 1 salts in organic solvents (solvent volumes); assay type: physicochemical
Method: Preparation of Additional Salts: Additional salts shown in the Table below were prepared using procedures similar to those described above and the solubility of the resulting salts of Compound 1 was evaluated.

[9] = target temperature 150 °C, after desolvation
[10] = target temperature 200 °C, after exothermic event

CCn1cc(Cc2cn(C)nc2-c2ccc(F)cc2[C@@H](C)Oc2cc(Br)cnc2N)c(Cl)n1 [Free Base]
Solubility (mg solid/mL water) [1]: <3 mg solid/mL water | XRPD Pattern Recovered [1]: Amorphous

CCn1nc(Cl)c2c1-c1cnc(N)c(c1)O[C@H](C)c1cc(F)ccc1-c1nn(C)cc1C2 [Form 12]
Solid Form post-heating [2, 9]: Form 2

CCn1nc(Cl)c2c1-c1cnc(N)c(c1)O[C@H](C)c1cc(F)ccc1-c1nn(C)cc1C2 [Form 7]
Solid Form post-heating ([2]; target temperature 134 °C, after desolvation): Form 2

CCn1nc(Cl)c2c1-c1cnc(N)c(c1)O[C@H](C)c1cc(F)ccc1-c1nn(C)cc1C2 [Form 9]
Solid Form post-heating [2, 9]: Form 2

CCn1nc(Cl)c2c1-c1cnc(N)c(c1)O[C@H](C)c1cc(F)ccc1-c1nn(C)cc1C2 [Compound 1]
Chemical and physical stability (description, assay, related substances, water content, polymorphic form, chiral purity) ([3]; 30° C.±2° C./65%±5% RH): No meaningful changes | Chemical and physical stability (description, assay, related substances, water content, polymorphic form, chiral purity) ([3]; 40° C.±2° C./75%±5% RH): No meaningful changes

CCn1nc(Cl)c2c1-c1cnc(N)c(c1)O[C@H](C)c1cc(F)ccc1-c1nn(C)cc1C2 [Form 2]
Chemical and physical stability (description, assay, related substances, polymorphic form, chiral purity) ([3]; 30° C.±2° C./65%±5% RH, 12 months (Example 21)): no meaningful change | Chemical and physical stability (description, assay, related substances, polymorphic form, chiral purity) ([3]; 40° C.±2° C./75%±5% RH, 6 months (Example 21)): no meaningful change | DVS weight increase [4]: about 0.3%

CCn1nc(Cl)c2c1-c1cnc(N)c(c1)O[C@H](C)c1cc(F)ccc1-c1nn(C)cc1C2 [Form 10]
Solid Form post-heating [2, 9]: Form 2

CCn1cc(Cc2cn(C)nc2-c2ccc(F)cc2[C@@H](C)Oc2cc(Br)cnc2N)c(Cl)n1 [Camsylate Salt]
Purity (%) After [5]: 99.65% | Purity (%) Before [5]: 99.59% | XRPD Pattern After [5]: Form A | Solubility (mg solid/mL water) [1]: <3 mg solid/mL water | XRPD Pattern Recovered [1]: Form A | Stability of crystalline salt pattern to drying and humidification [6]: stable to drying and humidification

CCn1nc(Cl)c2c1-c1cnc(N)c(c1)O[C@H](C)c1cc(F)ccc1-c1nn(C)cc1C2 [Form 4]
Solid Form post-heating ([2]; target temperature 132 °C, after desolvation): Form 2 | Solid Form post-heating ([2]; target temperature 170 °C, after exothermic event): Form 2

CCn1nc(Cl)c2c1-c1cnc(N)c(c1)O[C@H](C)c1cc(F)ccc1-c1nn(C)cc1C2 [Form 13]
Solid Form post-heating [2, 9]: Form 2

CCn1cc(Cc2cn(C)nc2-c2ccc(F)cc2[C@@H](C)Oc2cc(Br)cnc2N)c(Cl)n1 [Esylate Salt]
Purity (%) After [5]: 99.75% | Purity (%) Before [5]: 99.75% | XRPD Pattern After [5]: Form A | Solubility (mg solid/mL water) [1]: 5 mg solid/mL water | XRPD Pattern Recovered [1]: Form A | Stability of crystalline salt pattern to drying and humidification [6]: stable to drying and humidification

CCn1nc(Cl)c2c1-c1cnc(N)c(c1)O[C@H](C)c1cc(F)ccc1-c1nn(C)cc1C2 [Form 8]
Solid Form post-heating [2, 9]: Form 2 | Solid Form post-heating [2, 10]: Form 2

CCn1nc(Cl)c2c1-c1cnc(N)c(c1)O[C@H](C)c1cc(F)ccc1-c1nn(C)cc1C2 [lyophilized material]
solubility [7]: > 150 mg/mL

CCn1nc(Cl)c2c1-c1cnc(N)c(c1)O[C@H](C)c1cc(F)ccc1-c1nn(C)cc1C2 [Form 15]
Solid Form post-heating [2, 9]: Amorphous | Solid Form post-heating [2, 10]: Form 2

CCn1cc(Cc2cn(C)nc2-c2ccc(F)cc2[C@@H](C)Oc2cc(Br)cnc2N)c(Cl)n1 [Sulfate Salt]
Purity (%) After [5]: 99.97% | Purity (%) Before [5]: 99.97% | XRPD Pattern After [5]: Form A | Solubility (mg solid/mL water) [1]: <3 mg solid/mL water | XRPD Pattern Recovered [1]: Form A | Stability of crystalline salt pattern to drying and humidification [6]: stable to drying and humidification

CCn1nc(Cl)c2c1-c1cnc(N)c(c1)O[C@H](C)c1cc(F)ccc1-c1nn(C)cc1C2 [Form 11]
Solid Form post-heating ([2]; target temperature 130 °C, after desolvation): Form 2 | Solid Form post-heating [2, 10]: Form 2

CCn1nc(Cl)c2c1-c1cnc(N)c(c1)O[C@H](C)c1cc(F)ccc1-c1nn(C)cc1C2 [Salicylic acid salt]
Solubility, Volume (at 10-20° C.) ([8]; 2-MeTHF): 18-20 V | Solubility, Volume (at 10-20° C.) ([8]; Acetone): 26-28 V | Solubility, Volume (at 10-20° C.) ([8]; CPME): 100-140 V | Solubility, Volume (at 10-20° C.) ([8]; EtOAc): 26-30 V | Solubility, Volume (at 10-20° C.) ([8]; IPA): 300-400 V | Solubility, Volume (at 10-20° C.) ([8]; IPAc): 56-60 V | Solubility, Volume (at 10-20° C.) ([8]; MeCN): 90-100 V | Solubility, Volume (at 10-20° C.) ([8]; THF): 4-6 V | Solubility, Volume (at 10-20° C.) ([8]; Toluene): 320-360 V | Solubility, Volume (at 10-20° C.) ([8]; t-AmOH): >400 V

CCn1nc(Cl)c2c1-c1cnc(N)c(c1)O[C@H](C)c1cc(F)ccc1-c1nn(C)cc1C2 [H3PO4 salt]
Solubility, Volume (at 10-20° C.) ([8]; 2-MeTHF): >160 V | Solubility, Volume (at 10-20° C.) ([8]; Acetone): 58-60 V | Solubility, Volume (at 10-20° C.) ([8]; CPME): >500 V | Solubility, Volume (at 10-20° C.) ([8]; EtOAc): >100 V | Solubility, Volume (at 10-20° C.) ([8]; IPA): 140-150 V | Solubility, Volume (at 10-20° C.) ([8]; IPAc): >400 V | Solubility, Volume (at 10-20° C.) ([8]; MeCN): >400 V | Solubility, Volume (at 10-20° C.) ([8]; THF): >160 V | Solubility, Volume (at 10-20° C.) ([8]; Toluene): >400 V | Solubility, Volume (at 10-20° C.) ([8]; t-AmOH): >400 V

CCn1nc(Cl)c2c1-c1cnc(N)c(c1)O[C@H](C)c1cc(F)ccc1-c1nn(C)cc1C2 [Form 1]
Solid Form post-heating ([2]; target temperature 105 °C, after desolvation): Form 2 | Solid Form post-heating [2, 9]: Form 2

CCn1nc(Cl)c2c1-c1cnc(N)c(c1)O[C@H](C)c1cc(F)ccc1-c1nn(C)cc1C2 [TsOH salt]
Solubility, Volume (at 10-20° C.) ([8]; 2-MeTHF): >400 V | Solubility, Volume (at 10-20° C.) ([8]; Acetone): 10-12 V | Solubility, Volume (at 10-20° C.) ([8]; CPME): >400 V | Solubility, Volume (at 10-20° C.) ([8]; EtOAc): 18-20 V | Solubility, Volume (at 10-20° C.) ([8]; IPA): >400 V | Solubility, Volume (at 10-20° C.) ([8]; IPAc): 18-20 V | Solubility, Volume (at 10-20° C.) ([8]; MeCN): 8-10 V | Solubility, Volume (at 10-20° C.) ([8]; THF): 280-300 V | Solubility, Volume (at 10-20° C.) ([8]; Toluene): >400 V | Solubility, Volume (at 10-20° C.) ([8]; t-AmOH): >400 V

CCn1cc(Cc2cn(C)nc2-c2ccc(F)cc2[C@@H](C)Oc2cc(Br)cnc2N)c(Cl)n1 [Mesylate Salt]
Purity (%) After [5]: 99.94% | Purity (%) Before [5]: 99.92% | XRPD Pattern After [5]: Form A | Solubility (mg solid/mL water) [1]: 8 mg solid/mL water | XRPD Pattern Recovered [1]: Form A | Stability of crystalline salt pattern to drying and humidification [6]: stable to drying and humidification
